Data on 15 molecules can be found in patent US7772230B2, “Chroman compound, processes for its preparation, and its pharmaceutical use” (China Pharmaceutical University, priority 2006, dated 2010).

Data set [1] concerns the target T1, slowly delayed rectifier potassium channel current (IKs) (Cavia porcellus, UniProt O70344).
T1 construct: the Guinea pig myocardial cells are separated with enzymolysis; endogenous in cells; host or cells: freshly isolated guinea pig ventricular myocytes
T1 sequence (O70344 1-671): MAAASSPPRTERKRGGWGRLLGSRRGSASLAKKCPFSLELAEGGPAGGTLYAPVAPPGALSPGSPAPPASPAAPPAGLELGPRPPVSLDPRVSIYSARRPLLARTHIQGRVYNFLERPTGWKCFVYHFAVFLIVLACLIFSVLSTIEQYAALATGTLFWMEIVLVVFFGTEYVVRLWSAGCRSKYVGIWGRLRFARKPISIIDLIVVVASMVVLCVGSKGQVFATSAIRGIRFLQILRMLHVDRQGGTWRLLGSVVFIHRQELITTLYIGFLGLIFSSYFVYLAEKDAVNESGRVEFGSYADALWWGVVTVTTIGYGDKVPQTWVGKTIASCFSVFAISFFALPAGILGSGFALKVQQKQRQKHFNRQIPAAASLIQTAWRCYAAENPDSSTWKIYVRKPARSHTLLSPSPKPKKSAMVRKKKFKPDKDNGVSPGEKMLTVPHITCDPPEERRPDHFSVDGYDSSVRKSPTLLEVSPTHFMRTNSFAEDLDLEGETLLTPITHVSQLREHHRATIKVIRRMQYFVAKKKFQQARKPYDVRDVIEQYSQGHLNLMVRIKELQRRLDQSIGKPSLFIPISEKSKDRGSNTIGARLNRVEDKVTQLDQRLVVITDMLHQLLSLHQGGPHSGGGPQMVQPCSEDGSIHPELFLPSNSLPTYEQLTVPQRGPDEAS
T1 sequence (P41686 1-245 partner): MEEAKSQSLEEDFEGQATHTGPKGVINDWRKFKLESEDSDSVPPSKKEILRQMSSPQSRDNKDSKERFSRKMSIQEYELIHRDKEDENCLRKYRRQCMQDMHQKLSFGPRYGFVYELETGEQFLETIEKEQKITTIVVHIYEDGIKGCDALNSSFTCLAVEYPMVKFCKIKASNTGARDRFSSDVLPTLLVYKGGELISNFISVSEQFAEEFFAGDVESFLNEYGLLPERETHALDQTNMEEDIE
Put plainly: whole cell patch clamp on isolated Guinea pig myocardial cells, IKs. The class given is cell-based. As to conditions: Guinea pig ventricular myocytes, current recorded 10 min after administration, 25-30° C. The method, then: (§1) Experimental title: using vitro pachynsis myocardial cells of Guinea pig, the activity is determined by the whole cell membrane Patch clamp technology.
(§2) experimental mechanism: the Guinea pig myocardial cells are separated with enzymolysis, and the rapid activation component and the slowly activation component of the delayed commutating current in the cardiac muscle cells are recorded by whole cell membrane Patch clamp. Each compound is added to the perfuse liquid for measuring current after dissolved at least 10 min. The collected data is analyzed in pulse-fit, the IC50 value for IKr and IKs of each compound is calculated.
(§3) animals: Guinea pigs, male, weight 300-400 g.
(§4) solution: calcium free Tyrode's solution
(§5) pole inner solution (mmol/L): KCl 140, MgCl2 1.0, K2-ATP 4.0, EGTA 10, HEPES 5.0, pH=7.2
(§6) Experimental apparatus: Patch clamp magnifier (EPC-10, Germany), inverted microscope (TE-2000U, Nikon, Japan), microelectrode puller (PIP5, Germany), micro-manipulator (PCS-5000, Burleigh, USA).
(§7) Then, the hearts are taken off, their ventricle are cut to smash and incubated in fresh enzyme solution at 37° C., the solution is gently stirred for 5-10 min, pouring off the supernatant fluid, diluted with Tyrode's solution containing CaCl2 1 mmol/L, that is for the first cell stored liquor; with the same operation to obtain the second and the third cell storages. […] The cells are laid for 2 h before use.
(§8) the cell liquor is put into the cell pool, after the cells adhering to the wall, they are perfused with outer liquor of the cells at the rate of 2 ml/min, cells that having calcium resistance and clear transverse striations are to be selected, the poles are moved to the cell surface by tridimensional manipulator. The high resistance block are formed between the pole top and the cell surface by under pressure, and more over using reduced pressure to broking cell membrane, the pole inner liquor can be connected to the cell inner liquor so as to form the whole cell state. After the compensation to the capacitance and series impedance compensation the voltage tongs are recorded. The signal is led by Ag/AgCl pole and magnified by the Patch clamp magnifier, the computer dispenses presetting stimulate pulse by procedure and add to cells, and the electrical signal generated from cells is translated by transducer, and stored in computer. All of the stimulate signal control, electric current, data sampling and analyses are carried out by pulse V8.60. Azimilide is used as positive drugs in the research. Each test compound is dissolved in anhydrous ethanol, diluted to the same concentration by water, and added to outer cell liquor, the top concentration of ethanol is 0.1%.
(§9) Stimulate parameter: the record of IKr and IKS: the back value of the either current is recorded. Using extra-cellular fluid containing 0.1 mmol/L CdCl2 for perfusion, sustaining the voltage at −50 mV, depolarized to 60 mV, keeping for 500 ms, and sustaining the voltage at −50 mV, keeping for 1000 ms, recording IKr; and then binding the voltage at −50 mV for 1000 ms, recording IKs.
For orientation: Patch clamp records ionic current or voltage across a cell membrane.

Data set [2] concerns the target T2, rapidly delayed rectifier potassium channel current (IKr) (Cavia porcellus, UniProt O08703).
T2 construct: the Guinea pig myocardial cells are separated with enzymolysis; endogenous in cells; host or cells: freshly isolated guinea pig ventricular myocytes
T2 sequence (O08703 1-1294): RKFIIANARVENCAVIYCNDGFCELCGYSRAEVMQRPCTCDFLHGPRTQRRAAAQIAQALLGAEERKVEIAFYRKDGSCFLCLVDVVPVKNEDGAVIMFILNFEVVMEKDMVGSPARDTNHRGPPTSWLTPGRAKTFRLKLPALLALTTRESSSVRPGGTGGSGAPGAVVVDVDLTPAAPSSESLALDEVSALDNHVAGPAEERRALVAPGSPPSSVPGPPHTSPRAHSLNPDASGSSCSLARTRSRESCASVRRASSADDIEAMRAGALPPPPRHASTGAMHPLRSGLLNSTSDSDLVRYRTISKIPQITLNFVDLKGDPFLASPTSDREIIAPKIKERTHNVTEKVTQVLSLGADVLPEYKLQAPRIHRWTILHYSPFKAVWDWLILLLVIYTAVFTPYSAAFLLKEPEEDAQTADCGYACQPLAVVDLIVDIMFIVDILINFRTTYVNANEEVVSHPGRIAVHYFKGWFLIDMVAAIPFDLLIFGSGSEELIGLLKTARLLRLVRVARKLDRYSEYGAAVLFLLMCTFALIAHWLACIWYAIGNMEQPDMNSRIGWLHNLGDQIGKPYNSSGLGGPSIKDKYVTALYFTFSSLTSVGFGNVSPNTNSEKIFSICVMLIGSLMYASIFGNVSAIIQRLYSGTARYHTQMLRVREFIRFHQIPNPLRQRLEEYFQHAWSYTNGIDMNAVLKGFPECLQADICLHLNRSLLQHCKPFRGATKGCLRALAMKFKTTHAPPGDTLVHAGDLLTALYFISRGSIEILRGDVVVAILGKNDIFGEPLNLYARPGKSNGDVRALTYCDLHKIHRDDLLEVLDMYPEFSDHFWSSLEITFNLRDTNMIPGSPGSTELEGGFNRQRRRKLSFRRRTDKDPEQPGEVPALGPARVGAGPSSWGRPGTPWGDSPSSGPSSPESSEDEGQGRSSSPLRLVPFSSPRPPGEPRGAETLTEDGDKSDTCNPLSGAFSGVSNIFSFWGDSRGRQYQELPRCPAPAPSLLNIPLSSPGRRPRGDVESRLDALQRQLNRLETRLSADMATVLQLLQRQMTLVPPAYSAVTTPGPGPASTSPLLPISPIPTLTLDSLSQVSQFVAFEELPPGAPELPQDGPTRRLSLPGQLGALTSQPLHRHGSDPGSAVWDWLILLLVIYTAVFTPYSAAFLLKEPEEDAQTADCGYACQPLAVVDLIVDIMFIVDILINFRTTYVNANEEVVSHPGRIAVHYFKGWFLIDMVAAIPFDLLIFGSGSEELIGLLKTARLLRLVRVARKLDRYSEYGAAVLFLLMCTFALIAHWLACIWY
Briefly: whole cell patch clamp on isolated Guinea pig myocardial cells, IKr. The data set is classed as cell-based. As to conditions: Guinea pig ventricular myocytes, current recorded 10 min after administration, 25-30° C. The procedure: as §1, §2, §3, §4, §5, §6, §7, §8, §9

Structures are written as SMILES.

In the case of `CN1CCN(CCCCN2C(=O)CN(/N=C3\CCOc4ccc(O)cc43)C2=O)CC1.O=C(O)/C=C/C(=O)O`, the melting point (in general, the temperature, or range, at which the solid turns liquid) fell in the range of 203 to 205 °C.

Molecule `CCOc1ccc2c(c1)/C(=N/N1CC(=O)N(CCCCN3CCN(C)CC3)C1=O)CCO2.O=C(O)/C=C/C(=O)O` displayed a melting point of 225 to 227 °C. Take `Cc1ccc2c(c1)/C(=N/N1CC(=O)N(CCCCN3CCN(C)CC3)C1=O)CCO2.O=C(O)/C=C/C(=O)O`: the melting point is 231 to 233 °C. As for `COc1ccc2c(c1)/C(=N/N1CC(=O)N(CCCCN3CCN(C)CC3)C1=O)CCO2.O=C(O)/C=C/C(=O)O` [Ia example 1, 1-[4-(2,3-dihydro-6-methoxy)benzopyran]imino-3-[4-(methyl-1-piperazine)butyl]-2,4-imidazole dione difumarate], the melting point was 208 to 210 °C. The midpoint of inhibition in data set [1], the IC50, lay at 650 nM. Moreover, the IC50 (in general, the point on the concentration scale where inhibition reaches its midpoint) in data set [2] was 1010 nM.

As to `COc1ccc2c(c1)/C(=N/N1CC(=O)N(CCCCN3CCCCC3)C1=O)CCO2` [Ia example 5, 1-[4-(2,3-dihydro-6-methoxy)benzopyran]imino-3-(4-piperidine) butyl-2,4-imidazole dione], the values for the IC50 in data set [1] and in data set [2] were 22000 nM and 7470 nM, respectively. Turning to `O=C1CN(/N=C2\CCOc3ccc(Cl)cc32)C(=O)N1CCCCN1CCCCC1` [Ia example 6, 1-[4-(2,3-dihydro-6-chloro)benzopyran]imino-3-(4-piperidine) butyl-2,4-imidazole dione], the figures for the concentration for half-maximal inhibition (IC50) in data set [1] and in data set [2] were 61000 nM and 6.2 nM, respectively. With `Cc1ccc2c(c1)/C(=N/N1CC(=O)N(CCCCN3CCCCC3)C1=O)CCO2` [Ia example 7, 1-[4-(2,3-dihydro-6-methyl)benzopyran]imino-3-(4-piperidine) butyl-2,4-imidazole dione], the IC50 was found to be 18900 nM in data set [1] and 22000 nM in data set [2]. Turning to `COc1ccc2c(c1)/C(=N/N1CC(=O)N(CCCN3CCN(C)CC3)C1=O)CCO2` [Ia example 8, 1-[4-(2,3-dihydro-6-methoxy)benzopyran]imino-3-[3-(4-methylpiperazine-1-yl)propyl]-2,4-imidazole dione difumarate], the IC50 in data set [1] was found to be 1.9 nM; in data set [2], 540 nM. As for `Cc1ccc2c(c1)/C(=N/N1CC(=O)N(CCCN3CCN(C)CC3)C1=O)CCO2` [Ia example 9, 1-[4-(2,3-dihydro-6-methyl)benzopyran]imino-3-[3-(4-methylpiperazine-1-)propyl]-2,4-imidazole dione difumarate], the concentration for half-maximal inhibition (IC50) in data set [1] was 304 nM; in data set [2] it was 619 nM.

Regarding `CN1CCN(CCCN2C(=O)CN(N=C3CCOc4ccc(Cl)cc43)C2=O)CC1` [Ia example 10, 1-[4-(2,3-dihydro-6-chlorine)benzopyran]imino-3-[3-(4-methylpiperazine-1-yl)propyl]-2,4-imidazole dione difumarate], the 50% inhibitory concentration (IC50) is 5.8 nM in data set [1] and 3870 nM in data set [2]. Regarding `CCOc1ccc2c(c1)/C(=N/N1CC(=O)N(CCCCN3CCCCC3)C1=O)CCO2` [Ib example 5, 1-[4-(2,3-dihydro-6-ethoxy)benzopyran]imino-3-(4-piperidine) butyl-2,4-imidazole dione], the IC50 in data set [1] amounted to 1040 nM; in data set [2] it was 450 nM. For the molecule `CCCOc1ccc2c(c1)/C(=N/N1CC(=O)N(CCCCN3CCCCC3)C1=O)CCO2` [Ib example 6, 1-[4-(2,3-dihydro-6-propoxy-)benzopyran]imino-3-(4-piperidine) butyl-2,4-imidazole dione], the IC50 was 3.2 nM in data set [1] and 400 nM in data set [2]. Taken in the same sequence, the figures for `CCCCOc1ccc2c(c1)/C(=N/N1CC(=O)N(CCCCN3CCCCC3)C1=O)CCO2` [Ib example 7, 1-[4-(2,3-dihydro-6-butoxy)benzopyran]imino-3-(4-piperidine) butyl-2,4-imidazole dione] were 1030 nM and 17.4 nM. The matching figures for `CCOc1ccc2c(c1)/C(=N/N1CC(=O)N(CCCN3CCN(C)CC3)C1=O)CCO2` [Ib example 9, 1-[4-(2,3-dihydro-6-ethoxy)benzopyran]imino-3-[3-(4-methylpiperazine-1-yl)propyl]-2,4-imidazole dione difumarate]: 26.9 nM and 4340 nM. Regarding `CCCOc1ccc2c(c1)/C(=N/N1CC(=O)N(CCCN3CCN(C)CC3)C1=O)CCO2` [Ib example 10, 1-[4-(2,3-dihydro-6-propoxy-)benzopyran]imino-3-[3-(4-methylpiperazine-1-yl)propyl]-2,4-imidazole dione difumarate], the IC50 in data set [1] was found to be 9.5 nM; in data set [2], 106 nM.
